# In patent US20060153844A1, “Methods to trigger, maintain and manipulate immune responses by targeted administration of biological response modifiers into lymphoid organs” (priority 2004, published 2006):
# How the values were obtained:
# [1] = system: p33-specific CD8+ T cells; assay: p33-specific CD8+ T cell function, intracellular interferon-γ by FACS, Imiquimod as adjuvant; format: in vivo, C57BL/6 mice; conditions: 10 μg p33, day 8
# Description: C57BL/6 mice were immunized with the immunodominant MHC class I binding epitope of the lymphocytic choriomeninigitis virus glycoprotein, p33 (SEQ. ID. No. 11). On day 8 after immunization mice were bled to analyze p33-specific CD8+ T cell function by FACS staining of CD8, CD44 and intracellular interferon-γ production after a 4-hour in vitro stimulation with p33. All groups of mice received the same dose of 10 μg p33. The adjuvant Imiquimod, however, was administered by different routes and in different doses. Mice were either injected intralymphatically with 250 μg or 25 μg of Imiquimod, or they were injected subcutaneously with 250 μg or 25 μg of Imiquimod. Control mice were immunized with p33, but received no Imiquimod.
# [2] = including fatigue, malaise, fever, headache, and lymphocytopenia; cited from earlier work
# IFN-gamma = IFN-gamma in supernatants of restimulated splenocytes after s.c. peptide in IFA; format: in vivo, mice; conditions: subcutaneous immunization in combination with IFA; compared to non-self PSMA 730-739
# Description: Alternatively, mice were immunized with the PSMA 288-297 or PSMA 730-739 epitope peptide in IFA and peptide by subcutaneous injection (5 μg peptide in 100 μl, twice, at day 0 and 7). One week after the last administration, splenocytes were stimulated ex vivo with 5 μg (FIG. 7, top panel), 10 μg (FIG. 7, middle panel) and 20 μg/ml (FIG. 7, bottom panel) of peptide for 3 days and the IFN-gamma concentration in cell supernatants measured by ELISA.
Compound,induction of p33-specific CD8+ T cells ([1]; 250 μg Imiquimod intralymphatically),induction of p33-specific CD8+ T cells ([1]; 250 μg Imiquimod subcutaneous),toxicity when systemically administered [2],immune responsiveness (IFN-gamma) (IFN-gamma)
"CC(C)Cn1cnc2c(N)nc3ccccc3c21 [Imiquimod, 1-(2-methylpropyl)-1H-imidazol [4,5-c]quinolin-4-amine]",enhanced induction of p33-specific CD8+ T cells,not after subcutaneous administration,significant toxicity when systemically administered,–
"PSMA 288-297: SEQ. ID. No. 5, self epitope conserved between mouse and human (GLPSIPVHPI; Synthetically prepared peptide sequence)",–,–,–,decreased immune responsiveness
